# Active and inactive are the calls of the source. The rule behind the calls is not given here.
# Columns and labels:
# A2780 [1] = experiment: Potentiation of olaparib-induced antitumor activity against shNC RNA-transfected human A2780 cells xenografted in BALB/c mouse assessed as decrease in tumor weight at 15 mg/kg, ip co-administered with olaparib for 2 weeks; type: functional, organism-based
# A2780 [2] = experiment: Potentiation of olaparib sensitivity in human A2780 cells assessed as inhibition of cell invasion at 10 uM measured after 48 hrs in presence of olaparib by Transwell assay; type: functional, cell-based
# A2780 [3] = experiment: Downregulation of EMT signalling in human A2780 cells transfected with shFHL1-2 RNA assessed as N-cadherin protein expression at 10 uM by western blot analysis; type: functional, cell-based
# A2780 [4] = experiment: Inhibition of cell migration in human A2780 cells transfected with shFHL1-1 RNA at 10 uM measured after 24 to 48 hrs by wound healing assay; type: functional, cell-based; conditions: time 24-48 hrs
# [5] = Toxicity in BALB/c mouse xenografted with human A2780 cells assessed as effect on body weight at 5 to 15 mg/kg, ip administered every other day for 2 weeks; type: organism-based; conditions: in vivo, 336 h, dose 5-15 mg/kg
# A2780 [6] = experiment: Increase in FHL1 protein stability in human A2780 cells at 10 uM measured after 6 to 24 hrs in presence of cycloheximide by CHX chase assay based western blot analysis; type: functional, cell-based; conditions: time 6-24 hrs
# SK-OV-3 [7] = experiment: Potentiation of olaparib sensitivity in human SK-OV-3 cells assessed as inhibition of cell viability at 10 uM measured after 5 days in presence of olaparib by CCK8 assay; type: functional, cell-based; conditions: time 5.0 day
# Mus musculus [8] = experiment: Potentiation of olaparib sensitivity in BALB/c mouse xenografted with shFHL1-1 RNA-transfected human A2780 cells assessed as upregulation of E-cadherin protein expression in tumor at 15 mg/kg, ip co-administered with olaparib for 2 weeks by western blot analysis; type: functional, organism-based
# Mus musculus [9] = experiment: Potentiation of olaparib sensitivity in BALB/c mouse xenografted with shFHL1-1 RNA-transfected human A2780 cells assessed as downregulation of N-cadherin protein expression in tumor at 15 mg/kg, ip co-administered with olaparib for 2 weeks by western blot analysis; type: functional, organism-based
# SK-OV-3 [10] = experiment: Potentiation of olaparib sensitivity in human SK-OV-3 cells transfected with shFLH1-1 RNA assessed as downregulation of EMT signaling by measuring E-cadherin protein expression at 10 uM in presence of olaparib by western blot analysis; type: functional, cell-based
# SK-OV-3 [11] = experiment: Inhibition of cell invasion in human SK-OV-3 cells at 10 uM measured after 48 hrs by Transwell assay; type: functional, cell-based
# SK-OV-3 [12] = experiment: Potentiation of olaparib sensitivity in human SK-OV-3 cells transfected with shFHL1-1 RNA assessed as inhibition of cell migration at 10 uM measured after 24 to 48 hrs in presence of olaparib by wound healing assay; type: functional, cell-based; conditions: time 24-48 hrs
# A2780 [13] = experiment: Downregulation of EMT signalling in human A2780 cells transfected with shFHL1-1 RNA assessed as N-cadherin protein expression at 10 uM by western blot analysis; type: functional, cell-based
# SK-OV-3 [14] = experiment: Potentiation of olaparib sensitivity in human SK-OV-3 cells assessed as downregulation of EMT signaling by measuring downregulation of N-cadherin protein expression at 10 uM in presence of olaparib by western blot analysis; type: functional, cell-based
# A2780 [15] = experiment: Potentiation of olaparib-induced antitumor activity against shNC RNA-transfected human A2780 cells xenografted in BALB/c mouse assessed as decrease in lung metastatic nodules at 15 mg/kg, ip co-administered with olaparib every other day from day 6 of tumor cell inoculation and measured on day 30 post-tumor cell inoculation by H and E staining based bright field microscopic analysis; type: functional, organism-based; conditions: time 24.0 day
# SK-OV-3 [16] = experiment: Potentiation of olaparib sensitivity in human SK-OV-3 cells transfected with shFHL1-2 RNA assessed as inhibition of cell invasion at 10 uM measured after 48 hrs in presence of olaparib by Transwell assay; type: functional, cell-based
# A2780 [17] = experiment: Downregulation of EMT signalling in human A2780 cells assessed as downregulation of vimentin protein expression at 10 uM by western blot analysis; type: functional, cell-based
# A2780 [18] = experiment: Inhibition of cell invasion in human A2780 cells transfected with shFHL1-1 RNA at 10 uM measured after 48 hrs by Transwell assay; type: functional, cell-based
# Mus musculus [19] = experiment: Potentiation of olaparib sensitivity in BALB/c mouse xenografted with shNC RNA-transfected human A2780 cells assessed as increase in FHL1 protein expression in tumor at 15 mg/kg, ip co-administered with olaparib for 2 weeks by immunohistochemistry; type: functional, organism-based
# A2780 [20] = experiment: Effect on FHL1 mRNA expression in human A2780 cells at 5 to 20 uM by real-time PCR analysis; type: functional, cell-based; conditions: dose 5-20 µM
# SK-OV-3 [21] = experiment: Potentiation of olaparib sensitivity in human SK-OV-3 cells transfected with shFLH1-1 RNA assessed as downregulation of EMT signaling by measuring vimentin protein expression at 10 uM in presence of olaparib by western blot analysis; type: functional, cell-based
# SK-OV-3 [22] = experiment: Downregulation of EMT signalling in human SK-OV-3 cells transfected with shFHL1-1 RNA assessed as vimentin protein expression at 10 uM by western blot analysis; type: functional, cell-based
# A2780 [23] = experiment: Potentiation of olaparib sensitivity in human A2780 cells transfected with shFLH1-1 RNA assessed as downregulation of EMT signaling by measuring E-cadherin protein expression at 10 uM in presence of olaparib by western blot analysis; type: functional, cell-based
# A2780 [24] = experiment: Potentiation of olaparib sensitivity in human A2780 cells assessed as inhibition of colony formation at 10 uM incubated for 48 hrs in presence of olaparib followed by drug wash-out and incubated in fresh medium for 2 weeks by crystal violet staining based analysis; type: functional, cell-based
# A2780 [25] = experiment: Potentiation of olaparib-induced antitumor activity against human A2780 cells xenografted in BALB/c mouse assessed as decrease in tumor weight at 15 mg/kg, ip co-administered with olaparib for 2 weeks; type: functional, organism-based
# A2780 [26] = experiment: Downregulation of EMT signalling in human A2780 cells transfected with shFHL1-2 RNA assessed as E-cadherin protein expression at 10 uM by western blot analysis; type: functional, cell-based
# SK-OV-3 [27] = experiment: Increase in FHL1 protein stability in human SK-OV-3 cells at 10 uM measured after 6 to 24 hrs in presence of cycloheximide by CHX chase assay based western blot analysis; type: functional, cell-based; conditions: time 6-24 hrs
# [28] = Toxicity in BALB/c mouse xenografted with human A2780 cells assessed as decrease in body weight at 30 mg/kg, ip administered every other day and measured on day 6; type: organism-based; conditions: in vivo, 144 h, time 6 day
# A2780 [29] = experiment: Potentiation of olaparib sensitivity in human A2780 cells transfected with shFLH1-2 RNA assessed as downregulation of EMT signaling by measuring vimentin protein expression at 10 uM in presence of olaparib by western blot analysis; type: functional, cell-based
# SK-OV-3 [30] = experiment: Potentiation of olaparib sensitivity in human SK-OV-3 cells transfected with shFLH1-2 RNA assessed as downregulation of EMT signaling by measuring N-cadherin protein expression at 10 uM in presence of olaparib by western blot analysis; type: functional, cell-based
# A2780 [31] = experiment: Potentiation of olaparib sensitivity in human A2780 cells assessed as downregulation of EMT signaling by measuring downregulation of vimentin protein expression at 10 uM in presence of olaparib by western blot analysis; type: functional, cell-based
# A2780 [32] = experiment: Potentiation of olaparib sensitivity in human A2780 cells transfected with shFHL1-1 RNA assessed as inhibition of cell migration at 10 uM measured after 24 to 48 hrs in presence of olaparib by wound healing assay; type: functional, cell-based; conditions: time 24-48 hrs
smiles,measurement,setting,value
CC[C@]12C=CCN3CC[C@]4(C(=C(C(=O)OC)C1)Nc1ccccc14)[C@@H]32 [TABERSONINE],Activity,A2780 [1],Active
same,Activity,A2780 [2],Active
same,inhibition,A2780 [3],inactive
same,inhibition,A2780 [4],inactive
same,Activity,[5],Non-Toxic
same,Activity,A2780 [6],Active
same,Activity,SK-OV-3 [7],Active
same,Activity,Mus musculus [8],inactive
same,Activity,Mus musculus [9],inactive
same,Activity,SK-OV-3 [10],inactive
same,inhibition,SK-OV-3 [11],Active
same,Activity,SK-OV-3 [12],inactive
same,inhibition,A2780 [13],inactive
same,Activity,SK-OV-3 [14],Active
same,Activity,A2780 [15],Active
same,Activity,SK-OV-3 [16],inactive
same,inhibition,A2780 [17],Active
same,inhibition,A2780 [18],inactive
same,Activity,Mus musculus [19],Active
same,Activity,A2780 [20],inactive
same,Activity,SK-OV-3 [21],inactive
same,inhibition,SK-OV-3 [22],inactive
same,Activity,A2780 [23],inactive
same,Activity,A2780 [24],Active
same,Activity,A2780 [25],Active
same,inhibition,A2780 [26],inactive
same,Activity,SK-OV-3 [27],Active
same,Activity,[28],Toxic
same,Activity,A2780 [29],inactive
same,Activity,SK-OV-3 [30],inactive
same,Activity,A2780 [31],Active
same,Activity,A2780 [32],inactive
